Data taken from the supplement of paper PMC10307832.

Columns and labels:
Experiment in all cases: relative viability (nuclei count vs DMSO), 5 days (fraction); higher = more cells survive
AT-7519 + Linsitinib = compound: O=C(NC1CCNCC1)c1n[nH]cc1NC(=O)c1c(Cl)cccc1Cl [AT-7519] + C[C@]1(O)C[C@@H](c2nc(-c3ccc4ccc(-c5ccccc5)nc4c3)c3c(N)nccn32)C1 [Linsitinib] (partner 1 µM)
In short: (§1)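 One day after seeding in 1536-well plates, lung cancer cell lines were dosed by pin tool. Dosing was either single-drug or a fixed anchor-drug dose plus five library-drug doses (not always all listed) in √10 steps. After 5 days, nuclei were stained in one fix-and-stain step and counted on 4× images, and relative viability is the nuclei count of treated wells over that of vehicle wells, given as the median of duplicate plates.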

AT-7519 + Trametinib = compound: O=C(NC1CCNCC1)c1n[nH]cc1NC(=O)c1c(Cl)cccc1Cl [AT-7519] + CC(=O)Nc1cccc(-n2c(=O)n(C3CC3)c(=O)c3c(Nc4ccc(I)cc4F)n(C)c(=O)c(C)c32)c1 [Trametinib] (partner 0.02 µM)
In short: as §1

[1] = compound: C1=CC2=C(C=C(C(=C2N=C1)O)N=NC3=CC4=C(C=C3)C=C(C=C4)S(=O)(=O)O)S(=O)(=O)O + CCNC(=O)c1noc(-c2cc(C(C)C)c(O)cc2O)c1-c1ccc(CN2CCOCC2)cc1 [Luminespib] (partner 0.01 µM)
In short: as §1

AT-7519 + Decitabine = compound: O=C(NC1CCNCC1)c1n[nH]cc1NC(=O)c1c(Cl)cccc1Cl [AT-7519] + Nc1ncn([C@H]2C[C@H](O)[C@@H](CO)O2)c(=O)n1 [Decitabine] (partner 2 µM)
In short: as §1

Row | Cell Line | relative viability (AT-7519 + Linsitinib; first compound 0.01 µM) | relative viability (AT-7519 + Linsitinib; first compound 0.03162 µM) | relative viability (AT-7519 + Linsitinib; first compound 0.3162 µM) | relative viability (AT-7519 + Linsitinib; first compound 1 µM) | relative viability (AT-7519 + Trametinib; first compound 0.01 µM) | relative viability (AT-7519 + Trametinib; first compound 0.03162 µM) | relative viability (AT-7519 + Trametinib; first compound 0.3162 µM) | relative viability (AT-7519 + Trametinib; first compound 1 µM) | relative viability ([1]; first compound 0.08 µM) | relative viability ([1]; first compound 0.253 µM) | relative viability ([1]; first compound 0.8 µM) | relative viability ([1]; first compound 2.53 µM) | relative viability ([1]; first compound 8 µM) | relative viability (AT-7519 + Decitabine; first compound 0.01 µM) | relative viability (AT-7519 + Decitabine; first compound 0.03162 µM) | relative viability (AT-7519 + Decitabine; first compound 0.3162 µM) | relative viability (AT-7519 + Decitabine; first compound 1 µM)
1 | 201T | 0.933 | 1.04 | 1.06 | 1.05 | 0.731 | 0.798 | 0.684 | 0.64 | 1.09 | 1.09 | 1.04 | 1.09 | 1.04 | 0.915 | 0.853 | 0.831 | 0.862
2 | A549 | 0.658 | 0.552 | 0.629 | 0.39 | – | – | – | – | – | – | – | – | – | 0.233 | 0.22 | 0.28 | 0.251
3 | A-427 | 1.13 | 1.12 | 1.13 | 0.81 | 0.728 | 0.71 | 0.716 | 0.338 | 0.891 | 0.823 | 0.851 | 1.04 | 0.727 | 0.539 | 0.508 | 0.604 | 0.53
4 | ABC-1 | 0.784 | 0.715 | 0.788 | 0.243 | – | – | – | – | 0.609 | – | – | 0.521 | 0.623 | 1.22 | 1.08 | 0.859 | 0.926
5 | BEN | 0.887 | 0.894 | 0.864 | 0.785 | 0.99 | 1.04 | 0.885 | 1.11 | 0.295 | 0.353 | 0.424 | 0.627 | 0.232 | 0.754 | 0.663 | 0.771 | 0.744
6 | CAL-12T | 0.755 | 0.752 | 0.69 | 0.314 | 0.403 | 0.289 | 0.217 | 0.131 | 0.466 | 0.519 | 0.616 | 0.207 | 0.335 | – | – | – | –
7 | COR-L23 | 0.82 | 0.776 | 0.481 | 0.137 | 0.83 | 0.643 | 0.469 | 0.103 | 0.748 | 0.581 | 0.64 | 0.726 | 0.738 | 0.455 | 0.465 | 0.388 | 0.197
8 | COR-L 105 | 0.962 | 0.907 | 0.867 | 0.516 | 0.438 | 0.382 | 0.427 | 0.296 | 0.786 | 0.722 | 0.99 | 0.697 | 0.489 | 0.687 | 0.682 | 0.608 | 0.351
9 | Calu-6 | 1.05 | 0.942 | 1.07 | 0.772 | – | – | – | – | – | – | – | – | – | – | – | – | –
10 | ChaGo-K-1 | – | – | – | – | 0.949 | 0.884 | 0.936 | 0.795 | 0.558 | 0.573 | 0.587 | 0.595 | 0.553 | 0.534 | 0.526 | 0.519 | 0.461
11 | EBC-1 | 0.935 | 1.01 | 0.938 | 0.934 | – | – | – | – | – | – | – | – | – | – | – | – | –
12 | EKVX | 0.963 | 0.949 | 0.928 | 0.959 | 0.326 | 0.312 | 0.525 | 0.3 | 0.875 | 0.87 | 0.848 | 0.888 | 0.799 | 0.331 | 0.303 | 0.57 | 0.463
